According to patent US10220033B2, “Substituted benzoxazepine for cancer therapy” (University of Cape Town, priority 2014, dated 2019):
Read-outs that look alike come from different tables or passages of the source.

Experiments:
[1] = tested on: CaSki cervical cancer cell line; experiment: MTT assay for cell viability, IC50 determination; format: cell-based
Procedure: (§1) Cells were plated in 96-well plates and treated with varying concentrations of a test compound for 48 hours, after which MTT dye, 3-(4,5-dimethylthiazol-2-yl)-2,5-diphenyltetrazolium bromide (Sigma), was added, and crystals solubilised 4 hours later using Solubilisation Reagent (10% SLS in 0.01 M HCl). Absorbencies were measured at 595 nm the following day using a BioTek microplate spectrophotometer (Winooski, Vt., USA) and IC50 curves were generated using GraphPad Prism.

[2] = tested on: NFAT transcriptional activity in NFAT-transfected HeLa cells; experiment: NFAT luciferase reporter assay; format: cell-based; conditions: stimulated with TPA and ionomycin (FIGS. 16-20)
Procedure: To assay for NFAT luciferase activity, 30 000 HeLa cells were plated per well in 24-well plates, and transfected with 50 ng GFP-NFAT plasmid (Addgene plasmid #24219, gift of Jerry Crabtree (Beals C R, Clipstone N A, Ho S N, Crabtree G R. Nuclear localization of NF-ATc by a calcineurin-dependent, cyclosporin-sensitive intramolecular interaction. Genes Dev 1997 Apr. 1; 11(7):824-34)), 50 ng NFAT-luciferase (Addgene plasmid #10959, gift of Toren Finkel (Ichida M, Finkel T. Ras regulates NFAT3 activity in cardiac myocytes. J Biol Chem 2001 Feb. 2; 276(5):3524-30)), and 5 ng pRL-TK, using 0.4 μl Genecellin™ Transfection Reagent (Celtic Molecular Diagnostics, South Africa). The NFAT-luciferase reporter plasmid contains three tandem repeats of a 30 bp fragment of the IL-2 promoter known to bind NFAT. The following day cells were treated with 10 or 15 μM Compound A and after an overnight incubation, stimulated with 100 nM TPA (Sigma) and 1.3 μM Ionomycin (Santa Cruz Biotechnology, Santa Cruz, Calif., USA) for 5 hours, following which luciferase activity was measured.
An assay for nuclear NFAT following ionomycin and Compound A treatment was carried out, using an NFAT-luciferase reporter that is activated by nuclear NFAT. The phorbol ester TPA was used to co-stimulate NFAT, as it has been shown previously that TPA and ionomycin elicit synergistic stimulation of NFAT luciferase activity (Northrop J P, Ullman K S, Crabtree G R. Characterization of the nuclear and cytoplasmic components of the lymphoid-specific nuclear factor of activated T cells (NF-AT) complex. J Biol Chem 1993 Feb. 5; 268(4):2917-23).

[3] = tested on: HeLa cervical cancer cell line; experiment: MTT assay for cell viability, IC50 determination; format: cell-based; conditions: for IC50: Homo sapiens, HeLa
Procedure: as §1

[4] = tested on: WHCO5 oesophageal cancer cell line; experiment: MTT assay for cell viability, IC50 determination; format: cell-based, human; conditions: Homo sapiens
Procedure: as §1

[5] = tested on: KYSE180 oesophageal cancer cell line; experiment: MTT assay for cell viability, IC50 determination; format: cell-based; conditions: Homo sapiens, KYSE-180, 48 hours
Procedure: as §1

[6] = tested on: DMB normal skin fibroblasts (non-cancer); experiment: MTT assay for cell viability, IC50 determination; format: cell-based; conditions: Skin fibroblast
Procedure: as §1

[7] = MTT assay for cell viability, IC50 determination; format: cell-based; conditions: Homo sapiens, MCF-12A, MCF12A
Procedure: as §1

[8] = tested on: MDA-MB-231 breast cancer cell line; experiment: MTT assay for cell viability, IC50 determination; format: cell-based; conditions: Homo sapiens
Procedure: as §1

[9] = tested on: SVWI38 transformed cell line; experiment: MTT assay for cell viability, IC50 determination; format: cell-based
Procedure: as §1

[10] = tested on: KYSE150 oesophageal cancer cell line; experiment: MTT assay for cell viability, IC50 determination; format: cell-based; conditions: Homo sapiens, KYSE-150
Procedure: as §1

[11] = tested on: MCF7 breast cancer cell line; experiment: MTT assay for cell viability, IC50 determination; format: cell-based; conditions: Homo sapiens
Procedure: as §1

[12] = tested on: WI38 non-cancer cell line; experiment: MTT assay for cell viability, IC50 determination; format: cell-based; conditions: Homo sapiens, WI-38
Procedure: as §1

cancer cell lines = experiment: MTT cell viability, summary statements over panels of cancer cell lines; format: cell-based; conditions: CaSki, HeLa, WHCO5, KYSE150, MCF12A, MCF7, MDA-MB-231, SVW138 (Table 4); read-out: IC50 values
Procedure: as §1

[13] = tested on: EPC2 (EPC2-hTERT normal immortalised oesophageal epithelial cells); experiment: MTT assay for cell viability, IC50 determination; format: cell-based; conditions: Homo sapiens, compound in salt form
Procedure: as §1

[14] = Homo sapiens, Ca-Ski, 48 h, MTT, read-out: IC50
[15] = 48 h, 48 hours, MTT, read-out: IC50
[16] = compound in salt form, read-out: IC50
[17] = Homo sapiens, Ca-Ski, compound in salt form, read-out: IC50

Compound	IC50 [1, 14] [µM]	IC50 ([4]; 48 h, MTT) [µM]	IC50 [5] [µM]	IC50 [3, 15] [µM]	further results
Cc1ccc2cc(CNCCCN3C[C@@H]4C=C[C@H]3C4)c(N3CCC(O)CC3)nc2c1 (stereo in doubt) [VIII, 1-[3-[[3-[(1S,4R)-5-azabicyclo[2.2.1]hept-2-en-5-yl]propylamino]methyl]-7-methyl-2-quinolyl]piperidin4-ol]	24.4				
COc1cc2ncnc(Nc3cccc(Cl)c3)c2cc1OC [AG 1478, reference compound]					NFAT activation (NFAT-luciferase reporter) [2]: no change
c1ccc2[nH]cnc2c1 [Benzimidazole, benzimidazole, reference compound]					IC50 ([3]; HeLa cells (FIG. 3B), read-out: IC50 concentration (cell-killing effect)): 2080 µM
CCN(CC)CCCn1c(N)c(-c2nc3ccccc3[nH]2)c2nc3ccccc3nc21 [Compound B]	5.59	5.7	6.03	6.36	
Nc1c(-c2nc3ccccc3[nH]2)c2nc3ccccc3nc2n1CCCn1ccnc1 [Compound C]	9.49	8.32	8.46	7.19	
CCCn1c(N)c(-c2nc3ccccc3[nH]2)c2nc3ccccc3nc21 [Compound D]	12.2	12.2	14.8	8.38	
CCCCn1c(N)c(-c2nc3ccccc3[nH]2)c2nc3ccccc3nc21 [Compound E]	14.3	5.94	8.79	8.29	
CC(C)Cn1c(N)c(-c2nc3ccccc3[nH]2)c2nc3ccccc3nc21 [Compound F]	7.55	6.59	5.35	6.77	
CC(C)CCn1c(N)c(-c2nc3ccccc3[nH]2)c2nc3ccccc3nc21 [Compound G]	6.17	6.14	5.51	6.38	
Nc1c(-c2nc3ccccc3[nH]2)c2nc3ccccc3nc2n1CCCO [Compound H]	10	6.3	1.18	4.04	
Clc1ccccc1COc1nc2cc3c(cc2cc1CNCc1cn2c(n1)SCC2)CCC3 [Compound IV, ({2-[(2-chlorophenyl)methoxy]-6H,7H,8H-cyclopenta[g]quinolin-3-yl}methyl)({2H,3H-imidazo[2,1-b][1,3]thiazol-6-ylmethyl})amine]	8.69	17.9		8.62	IC50 ([6]; DMB non-cancer, 48 hours, MTT): 8.27 µM; IC50 ([7]; 48 hours, MTT): 11.4 µM; IC50 ([8]; 48 hours, MTT): 8.01 µM; IC50 ([9]; SVWI38 transformed, 48 hours, MTT): 12.9 µM; IC50 ([10]; KYSE150, 48 hours, MTT): 11.2 µM; IC50 ([11]; 48 hours, MTT): 14 µM; IC50 ([12]; WI38 non-cancer, 48 hours, MTT): 25.1 µM; IC50 (cancer cell lines): 8 to 18 µM
Cc1cccc(N[C@@H](c2ccc(N(C)C)cc2)c2ccc3ccc(C)nc3c2O)n1 [Compound IX, 7-[(4-dimethylaminophenyl)-[(6-methyl-2-pyridyl)amino]methyl]-2-methyl-quinolin-8-ol]	26.6				IC50 ([4]; compound in salt form): 22.4 µM; IC50 ([6]; DMB, compound in salt form): 40.9 µM; IC50 ([7]; compound in salt form): 27.8 µM; IC50 ([8]; compound in salt form): 10.4 µM; IC50 ([9]; SVWI38, compound in salt form): 15.3 µM; IC50 [13]: 5.78 µM; IC50 ([10]; Kyse150, compound in salt form): 9.08 µM; IC50 [3, 16]: 12.3 µM; IC50 ([11]; compound in salt form): 50.2 µM; IC50 ([12]; WI38, compound in salt form): 20.8 µM; IC50 [1, 17]: 26.6 µM
Cn1c(-c2c(N)n(CCCN3CCOCC3)c3nc4ccccc4nc23)nc2ccccc21 [Compound I]		19.6	22	15.4	IC50 ([1]; 48 hours, MTT): Does not converge.
CCCn1c(N)c(-c2nc3ccccc3n2C)c2nc3ccccc3nc21 [Compound J]	38.4	11.8	33.1	22.2	
CCn1c(N)c(-c2nc3ccccc3[nH]2)c2nc3ccccc3nc21 [Compound K]	6.62	6.79	7.23	4.16	
Cc1csc2nc(CNCc3cc4cc5c(cc4n(CC4CCCCC4)c3=O)CCC5)cn12 [Compound X, 1-(cyclohexylmethyl)-3-[[(3-methylimidazo[2,1-b]thiazol-6-yl)methylamino]methyl]-7,8-dihydro-6H-cyclopenta[g]quinolin-2-one]	26.7				IC50 ([4]; compound in salt form): 20 µM; IC50 ([6]; DMB, compound in salt form): 69.3 µM; IC50 ([7]; compound in salt form): 11.7 µM; IC50 ([8]; compound in salt form): 22.1 µM; IC50 ([9]; SVWI38, compound in salt form): 33.5 µM; IC50 [13]: 9.37 µM; IC50 ([10]; Kyse150, compound in salt form): 32.2 µM; IC50 [3, 16]: 21.5 µM; IC50 ([11]; compound in salt form): 23.7 µM; IC50 ([12]; WI38, compound in salt form): 39.4 µM; IC50 [1, 17]: 26.7 µM
Cc1csc2nc(CNCc3cc4cc5c(cc4n(CCN4CCCCC4)c3=O)CCC5)cn12 [Compound XI, 3-[[(3-methylimidazo[2,1-b]thiazol-6-yl)methylamino]methyl]-1-[2-(1-piperidyl)ethyl]-7,8-dihydro-6H-cyclopenta[g]quinolin-2-one]	26.9				IC50 ([4]; compound in salt form): 17 µM; IC50 ([6]; DMB, compound in salt form): 31.2 µM; IC50 ([7]; compound in salt form): 61.8 µM; IC50 ([8]; compound in salt form): 32.7 µM; IC50 ([9]; SVWI38, compound in salt form): 41.1 µM; IC50 ([10]; Kyse150, compound in salt form): 40.1 µM; IC50 [3, 16]: 33.1 µM; IC50 ([11]; compound in salt form): 95 µM; IC50 ([12]; WI38, compound in salt form): 35 µM; IC50 [1, 17]: 26.9 µM
CCOC(=O)c1cc2c(=O)n3cc(C)ccc3nc2[n+](CCCN2CCOCC2)c1N [V, ethyl 2-imino-8-methyl-1-[3-(4-morpholinyl)propyl]-5-oxo-1,5-dihydro-2H-dipyrido[1,2-a:2′,3′-d]pyrimidine-3-carboxylate]	16.4				
COc1ccc(C)cc1NC(=O)[C@@H](NCc1nc2ccccc2n1C)c1ccccc1 [VI, (2S)-N-(2-methoxy-5-methyl-phenyl)-2-[(1-methylbenzimidazol-2-yl)methylamino]-2-phenyl-acetamide]	19.1				
Cc1ccc(OC[C@@H](O)CN2CCN(CCO)CC2)cc1C [VII, (2S)-1-(3,4-dimethylphenoxy)-3-[4-(2-hydroxyethyl)piperazin-1-yl]propan-2-ol]	22.2				
Cc1ccc2c(c1)c1c(n2C[C@@H](O)CNC[C@@H]2CCCO2)CCCC1 [XIV, (2S)-1-(6-methyl-1,2,3,4-tetrahydrocarbazol-9-yl)-3-[[(2S)-tetrahydrofuran-2-yl]methylamino]propan-2-ol]	31.7				
OCCCNCc1cc2cc3c(cc2nc1N1CCN(c2cccc(Cl)c2)CC1)OCO3 [XV, 3-[[6-[4-(3-chlorophenyl)piperazin-1-yl]-[1,3]dioxolo[4,5-g]quinolin-7-yl]methylamino]propan-1-ol]	37.7				
CN1CCc2cc(CNC3CCN(c4ccc(C(=O)NC5CCCC5)cc4)CC3)ccc21 [XVI, N-cyclopentyl-4-[4-[(1-methylindolin-5-yl)methylamino]-1-piperidyl]benzamide]	46.8				
c1ccc2nccnc2c1 [quinoxaline, reference compound]					cell-killing effect ([3]; HeLa cells, concentration range of up to 6.5 mM (FIG. 3A)): No cell-killing effect was observed
Ivermectin [reference compound]					NFAT activation (NFAT-luciferase reporter) [2]: significantly diminished
